Values after ≈ are worked out from the molar mass of the structure shown.
What was measured:
[1] = target: T1, Recombinant human MMP 14 catalytic domain (Homo sapiens, UniProt P50281); experiment: Isolated enzyme assay MMP14; type: biochemical; conditions: read-out: hMMP14 IC50
T1 construct: Recombinant human MMP 14 catalytic domain; made in house
Protocol: Recombinant human MMP 14 catalytic domain may be expressed and purified as described by Parkar A. A. et al, (2000), Protein Expression and Purification, 20, 152. The purified enzyme can be used to monitor inhibitors of activity as follows: MMP14 (10 ng/ml final concentration) is incubated for 60 minutes at room temperature with the synthetic substrate Mca-Pro-Cha-Gly-Nva-His-Ala-Dpa-NH2 (10 μM) in assay buffer (0.1M “Tris-HCl” (trade mark) buffer, pH 7.5 containing 0.1M NaCl, 20 mM CaCl2, 0.020 mM ZnCl and 0.05% (w/v) “Brij 35” (trade mark) detergent) in the presence (5 concentrations) or absence of inhibitors. Activity is determined by measuring the fluorescence at λex 320 nm and λem 405 nm. Percent inhibition is calculated as follows: % Inhibition is equal to the [Fluorescenceplus inhibitor−Fluorescencebackground] divided by the [Fluorescenceminus inhibitor−Fluorescencebackground].

hMMP8 = target: T2, hMMP8 (Homo sapiens, UniProt P22894); experiment: Isolated enzyme assay MMP8; type: biochemical
T2 construct: purchased Calbiochem
T2 sequence (P22894 101-467): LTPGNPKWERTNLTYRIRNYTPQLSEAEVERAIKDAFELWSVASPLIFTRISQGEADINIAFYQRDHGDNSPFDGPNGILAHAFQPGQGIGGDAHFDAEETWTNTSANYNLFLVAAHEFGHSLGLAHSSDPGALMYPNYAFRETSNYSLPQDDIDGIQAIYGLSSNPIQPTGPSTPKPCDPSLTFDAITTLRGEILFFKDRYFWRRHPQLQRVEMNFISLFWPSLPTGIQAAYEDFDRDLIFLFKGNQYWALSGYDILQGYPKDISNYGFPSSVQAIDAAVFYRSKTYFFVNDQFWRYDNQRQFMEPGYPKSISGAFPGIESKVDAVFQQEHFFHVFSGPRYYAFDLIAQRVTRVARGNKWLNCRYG
Protocol: Purified pro-MMP8 is purchased from Calbiochem. The enzyme (at 10 μg/ml) is activated by p-amino-phenyl-mercuric acetate (APMA) at 1 mM for 2.5 h, 35° C. The activated enzyme can be used to monitor inhibitors of activity as follows: MMP8 (200 ng/ml final concentration) is incubated for 90 minutes at 35° C. (80% H2O) with the synthetic substrate Mca-Pro-Cha-Gly-Nva-His-Ala-Dpa-NH2 (12.5 μM) in assay buffer (0.1M “Tris-HCl” (trade mark) buffer, pH 7.5 containing 0.1M NaCl, 30 mM CaCl2, 0.040 mM ZnCl and 0.05% (w/v) “Brij 35” (trade mark) detergent) in the presence (10 concentrations) or absence of inhibitors. Activity is determined by measuring the fluorescence at λex 320 nm and λem 405 nm. Percent inhibition is calculated as follows: % Inhibition is equal to the [Fluorescenceplus inhibitor−Fluorescencebackground] divided by the [Fluorescenceminus inhibitor−Fluorescencebackground]. MMP9

[2] = target: T3, Recombinant human MMP 12 catalytic domain (Homo sapiens, UniProt P39900); experiment: Isolated enzyme assay MMP12; type: biochemical; conditions: read-out: hMMP12 IC50
T3 construct: Recombinant human MMP 12 catalytic domain; made in house
T3 sequence (P39900 106-263 limits assumed): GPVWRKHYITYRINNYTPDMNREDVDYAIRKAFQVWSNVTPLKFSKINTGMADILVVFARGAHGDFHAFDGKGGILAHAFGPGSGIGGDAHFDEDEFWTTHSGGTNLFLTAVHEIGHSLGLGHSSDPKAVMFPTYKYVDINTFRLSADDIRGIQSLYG
Protocol: Recombinant human MMP 12 catalytic domain may be expressed and purified as described by Parkar A. A. et al, (2000), Protein Expression and Purification, 20, 152. The purified enzyme can be used to monitor inhibitors of activity as follows: MMP12 (50 ng/ml final concentration) is incubated for 60 minutes at room temperature with the synthetic substrate Mca-Pro-Cha-Gly-Nva-His-Ala-Dpa-NH2 (10 μM) in assay buffer (0.1M “Tris-HCP” (trade mark) buffer, pH 7.3 containing 0.1M NaCl, 20 mM CaCl2, 0.020 mM ZnCl and 0.05% (w/v) “Brij 35” (trade mark) detergent) in the presence (10 concentrations) or absence of inhibitors. Activity is determined by measuring the fluorescence at λex 320 nm and λem 405 nm. Percent inhibition is calculated as follows: % Inhibition is equal to the [Fluorescenceplus inhibitor−Fluorescencebackground] divided by the [Fluorescenceminus inhibitor−Fluorescencebackground]. MMP8

plasma protein = experiment: Plasma protein binding by ultrafiltration; conditions: 10 μM, room temperature
Protocol: Plasma protein binding was determined by ultrafiltration in an automated 96 well format assay. On each test occasion the plasma protein binding of a reference compound (budesonide) was monitored in parallel.
Test compounds (10 mM dissolved in DMSO) were added to plasma to a final concentration of 10 μM and equilibrated at room temperature for 10 minutes. 350 μL of the plasma was transferred to an ultrafiltration plate, Microcon-96 (10 kDa cutoff, Millipore). The ultrafiltration plate was centrifuged at 3000 G for 70 minutes at room temperature. After centrifugation, the concentration of the compounds in the obtained plasma water (the unbound fraction) was determined by LC-MS/MS using a 3-point calibration curve and compared to the concentration in the original spiked plasma.
The analyses were performed using a gradient chromatographic system with acetic acid/acetonitrile as mobile phases.

[3] = target: T4, Recombinant human MMP9 catalytic domain (Homo sapiens, UniProt P14780); experiment: Isolated enzyme assay MMP9; type: biochemical; conditions: read-out: hMMP9 IC50
T4 sequence (P14780 with tags, fused parts or gaps DEL216-390 limits assumed): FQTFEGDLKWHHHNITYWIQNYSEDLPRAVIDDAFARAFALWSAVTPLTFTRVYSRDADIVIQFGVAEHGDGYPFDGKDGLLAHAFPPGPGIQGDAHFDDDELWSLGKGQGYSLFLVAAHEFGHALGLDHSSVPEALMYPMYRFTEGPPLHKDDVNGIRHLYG
Protocol: Recombinant human MMP9 catalytic domain was expressed and then purified by Zn chelate column chromatography followed by hydroxamate affinity column chromatography. The enzyme can be used to monitor inhibitors of activity as follows: MMP9 (5 ng/ml final concentration) is incubated for 30 minutes at RT with the synthetic substrate Mca-Pro-Cha-Gly-Nva-His-Ala-Dpa-NH2 (5 μM) in assay buffer (0.1 M “Tris-HCl” (trade mark) buffer, pH 7.3 containing 0.1M NaCl, 20 mM CaCl2, 0.020 mM ZnCl and 0.05% (w/v) “Brij 35” (trade mark) detergent) in the presence (10 concentrations) or absence of inhibitors. Activity is determined by measuring the fluorescence at λex 320 nm and λem 405 nm. Percent inhibition is calculated as follows: % Inhibition is equal to the [Fluorescenceplus inhibitor−Fluorescencebackground] divided by the [Fluorescenceminus inhibitor−Fluorescencebackground]. MMP14
A protocol for testing against other matrix metalloproteinases, including MMP9, using expressed and purified pro MMP is described, for instance, by C. Graham Knight et al., (1992) FEBS Lett., 296(3), 263-266.

[4] = Determination of solubility in 0.1M phosphate buffer, pH 7.4; conditions: 20 °C, pH 7.4, aqueous buffer, thermodynamic from solid
Protocol: Protocol for Determination of Solubility
The test compound (1 mg) was weighed into a 2 mL glass vial with a screw cap and 0.1 M phosphate buffer pH 7.4. (1.00 mL) was added. The sample vial was then sonicated for about 10 minutes and then placed on a shake board overnight at 20° C. The contents of the sample vial were then filtered through a Millipore Millex-LH 0.45 μm filter into a new 2 mL glass vial to give a clear solution. The clear solution (40 μL) was transferred to a new 2 mL glass vial and diluted with 0.1 M phosphate buffer, pH 7.4 (960 μL).
A standard calibration curve for each particular test compound was established using solutions of known concentration. These solutions of known concentration were normally chosen to have concentrations of ˜10 μg/mL and ˜50 μg/mL. They were prepared by dissolving a known weight of the compound in 99.5% ethanol (500 μL) and then sonicating for one minute if necessary. If the compound was still not completely dissolved, DMSO (500 μL) was added and the mixture sonicated for an additional one minute. The resulting solution was then diluted to the appropriate volume with a mixture of acetonitrile/100 mM ammonium acetate pH 5.5 20-50/80-50. If necessary, a further, more dilute, standard solution was prepared by dilution.

[5] = target: T5, Recombinant human MMP19 catalytic domain (Homo sapiens, UniProt Q99542); experiment: Isolated enzyme assay MMP19; type: biochemical; conditions: read-out: hMMP19 IC50
T5 construct: Recombinant human MMP19 catalytic domain; made in house
T5 sequence (Q99542 98-256 limits assumed): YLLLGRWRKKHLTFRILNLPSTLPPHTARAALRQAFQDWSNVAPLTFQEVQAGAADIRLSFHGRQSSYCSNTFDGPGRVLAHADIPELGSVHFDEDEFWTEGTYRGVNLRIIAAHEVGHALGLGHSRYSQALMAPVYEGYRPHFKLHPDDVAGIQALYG
Protocol: Recombinant human MMP19 catalytic domain may be expressed and purified as described by Parkar A. A. et al, (2000), Protein Expression and Purification, 20:152. The purified enzyme can be used to monitor inhibitors of activity as follows: MMP19 (40 ng/ml final concentration) is incubated for 120 minutes at 35° C. with the synthetic substrate Mca-Pro-Leu-Ala-Nva-Dpa-Ala-Arg-NH2 (5 μM) in assay buffer (0.1M “Tris-HCl ” (trade mark) buffer, pH 7.3 containing 0.1M NaCl, 20 mM CaCl2, 0.020 mM ZnCl and 0.05% (w/v) “Brij 35” (trade mark) detergent) in the presence (5 concentrations) or absence of inhibitors. Activity is determined by measuring the fluorescence at λex 320 nm and λem 405 nm. Percent inhibition is calculated as follows: % Inhibition is equal to the [Fluorescenceplus inhibitor−Fluorescencebackground] divided by the [Fluorescenceminus inhibitor−Fluorescencebackground].

Compound | IC50 [1] [µM] | IC50 (hMMP8) [nM] | IC50 [2] [nM] | Protein binding (% free) (plasma protein) | IC50 [3] [nM] | solubility [4] [µM] | IC50 [5] [µM] | Solubility pH 7.4 [μM]
Cc1ccc(C#CC2=CCN(S(=O)(=O)C[C@@]3(C)NC(=O)NC3=O)CC2)cc1 [(5S)-5-methyl-5-({[4-[(4-methylphenyl)ethynyl]-3,6-dihydropyridin-1(2H)-yl]sulfonyl}methyl)imidazolidine-2,4-dione, reference compound] | 4.43 | 384 | 3 | 2.25 | 34 | 72 (≈ 27.9 µg/mL) | 1.97 | –
C[C@]1(CS(=O)(=O)N2CC=C(C#Cc3ccc(Cl)cc3)CC2)NC(=O)NC1=O [(5S)-5-({[4-[(4-chlorophenyl)ethynyl]-3,6-dihydropyridin-1(2H)-yl]sulfonyl}methyl)-5-methylimidazolidine-2,4-dione, reference compound] | 4.3 | 180 | 2 | 1.75 | 9 | 49 (≈ 20 µg/mL) | 3.98 | –
C[C@]1(CS(=O)(=O)N2CC=C(C#Cc3cnc(C4CC4)nc3)CC2)NC(=O)NC1=O [Example 1, (5S)-5-({[4-[(2-Cyclopropylpyrimidin-5-yl)ethynyl]-3,6-dihydropyridin-1(2H) -yl]sulfonyl}methyl)-5-methylimidazolidine-2,4-dione] | > 10 | 2530 | 6 | 18 | 5 | 396 (≈ 165 µg/mL) | – | –

Further lines, results first:

IC50 [1] [µM] | IC50 (hMMP8) [nM] | IC50 [2] [nM] | Protein binding (% free) (plasma protein) | IC50 [3] [nM] | solubility [4] [µM] | IC50 [5] [µM] | Solubility pH 7.4 [μM] | Compound
> 10 | 1140 | 9 | 47 | 9 | 91 | – | – | CCc1ncc(C#CC2=CCN(S(=O)(=O)C[C@@]3(C)NC(=O)NC3=O)CC2)cn1.O=C(O)C(F)(F)F [Example 5, (5S)-5-({[4-[(2-Ethylpyrimidin-5-yl)ethynyl]-3,6-dihydropyridin-1(2H) -yl]sulfonyl}methyl)-5-methylimidazolidine-2,4-dione trifluoroacetate]
> 10 | 547 | 6 | – | 5 | – | 7.9 | 118 | C[C@]1(CS(=O)(=O)N2CC=C(C#Cc3cnc(C(F)(F)F)nc3)CC2)NC(=O)NC1=O [Example 3]

Reference: US7989620B2, “Hydantoin derivatives for the treatment of obstructive airway diseases” (AstraZeneca AB, priority 2004, dated 2011)
